In PMC10485003, “Antibiotic hyper-resistance in a class I aminoacyl-tRNA synthetase with altered active site signature motif” (Nature Communications, 2023):
Where “and” joins values, the source holds several entries; their conditions need not be identical. Identical values can stand only once.

Biological target: T1, mut-GVHH PmIleRS2 (Priestia megaterium, UniProt A0A0B6AVD3, G56H/H54G)
T1 sequence (A0A0B6AVD3 1-1032 H54G/G56H): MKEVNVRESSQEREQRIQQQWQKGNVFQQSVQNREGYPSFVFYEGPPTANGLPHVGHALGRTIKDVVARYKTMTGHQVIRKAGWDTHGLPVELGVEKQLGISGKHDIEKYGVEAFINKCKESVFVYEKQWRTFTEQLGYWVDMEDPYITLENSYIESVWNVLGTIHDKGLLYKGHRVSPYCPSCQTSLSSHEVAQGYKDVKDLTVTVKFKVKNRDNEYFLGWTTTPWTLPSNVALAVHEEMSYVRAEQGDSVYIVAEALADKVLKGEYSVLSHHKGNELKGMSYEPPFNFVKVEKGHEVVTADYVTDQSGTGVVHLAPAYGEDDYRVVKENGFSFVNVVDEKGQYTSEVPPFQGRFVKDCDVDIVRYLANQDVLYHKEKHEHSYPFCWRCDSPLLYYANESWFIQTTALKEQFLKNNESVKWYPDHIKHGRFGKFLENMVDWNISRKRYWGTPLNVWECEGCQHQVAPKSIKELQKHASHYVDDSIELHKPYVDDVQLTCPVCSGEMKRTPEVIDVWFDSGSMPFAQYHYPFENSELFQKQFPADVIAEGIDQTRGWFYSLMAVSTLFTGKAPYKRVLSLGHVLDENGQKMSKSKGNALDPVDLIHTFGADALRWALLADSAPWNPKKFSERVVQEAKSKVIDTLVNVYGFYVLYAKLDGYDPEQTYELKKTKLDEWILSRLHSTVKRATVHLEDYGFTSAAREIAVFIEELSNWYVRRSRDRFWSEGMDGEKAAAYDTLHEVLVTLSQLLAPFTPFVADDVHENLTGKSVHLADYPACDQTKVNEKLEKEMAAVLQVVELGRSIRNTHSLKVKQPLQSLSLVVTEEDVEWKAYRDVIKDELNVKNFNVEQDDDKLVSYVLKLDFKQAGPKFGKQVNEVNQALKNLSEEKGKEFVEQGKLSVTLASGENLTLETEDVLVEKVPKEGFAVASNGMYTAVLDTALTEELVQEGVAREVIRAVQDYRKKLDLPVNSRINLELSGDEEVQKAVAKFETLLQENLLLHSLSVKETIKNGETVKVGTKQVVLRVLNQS
Experiment: ATP-PPi exchange assay, mupirocin inhibition of amino acid activation
Assay type: biochemical, Priestia (Bacillus) megaterium
Method: L-Ile and ATP concentrations ranged from 1/10 KM to 10 KM values. When measuring the KI towards one of the substrates, the other was held in saturation (concentrations at least 10 KM). The aliquots of the reaction mixture (1–2.5 μl) were quenched in 2 volumes of 500 mM NaOAc pH = 4.5, 0.1% SDS, and formed ^32P-ATP was separated from the remaining ^32P-PPi by thin-layer chromatography on Polygram CEL 300 PEI UV254 TLC plates (Macherey-Nagel, cat: 801063) using 750 mM KH2PO4 pH=3.5, 4 M urea buffer. Visualization and quantification of the signals was performed using a Typhoon Phosphoimager 5 (General Electric) and accompanying ImageQuant™ TL software (SV: 10.2). The kinetic constants were determined using a global fit option of the competitive inhibition model of GraphPad Prism 6 software (SV: 6.01). All experiments were performed in triplicates. The kcat was determined by dividing the maximal velocity, VM, with the used enzyme concentration. […]
variable substrate (ATP or Ile) was varied in the range of 0.1 KM to 10 KM. The other substrate (Ile or ATP) was kept in excess at 5 to 10 KM. Data were globally fitted to the competitive inhibition model using GraphPad prism 6.01 for Windows software. The values represent the average value ± SD of three independent experiments. Source data are provided as a Source Data file.

For `C/C(=C\C(=O)OCCCCCCCCC(=O)O)C[C@@H]1OC[C@H](C[C@@H]2O[C@H]2[C@@H](C)[C@H](C)O)[C@@H](O)[C@H]1O` [mupirocin], the Ki (KI (MUP)ATP, amino acid activation assay, ATP as variable substrate, average ± SD of three independent experiments) was 480 ± 10 µM, the Ki (KI (MUP)Ile, amino acid activation step, ATP/PPi exchange assay, Ile varied, ATP saturating, average ± SD of three independent experiments) was 460 ± 10 µM and the Ki (KI, single replicates, mupirocin inhibition towards Ile, GraphPad Prism output, Repl1-Repl3) was 470 µM and 480 µM and 420 µM. It also gave a vo (c (mupirocin) = 0.5 mM, c (Ile) 100.0 μM, Replica 1) of 0.01849 mM/min, a vo (c (mupirocin) = 0.5 mM, c (Ile) 100.0 μM, Replica 2) of 0.01948 mM/min and a vo (c (mupirocin) = 0.5 mM, c (Ile) 250.0 μM, Replica 1) of 0.03623 mM/min. It also gave a vo (c (mupirocin) = 0.5 mM, c (Ile) 250.0 μM, Replica 2) of 0.03682 mM/min, a vo (c (mupirocin) = 0.5 mM, c (Ile) 250.0 μM, Replica 3) of 0.03653 mM/min and a vo (c (mupirocin) = 0.5 mM, c (Ile) 500.0 μM, Replica 1) of 0.05582 mM/min. The vo (c (mupirocin) = 0.5 mM, c (Ile) 500.0 μM, Replica 2) was 0.05871 mM/min, the vo (c (mupirocin) = 0.5 mM, c (Ile) 500.0 μM, Replica 3) was 0.05786 mM/min and the vo (c (mupirocin) = 0.5 mM, c (Ile) 1000.0 μM, Replica 1) was 0.07169 mM/min. It also gave a vo (c (mupirocin) = 0.5 mM, c (Ile) 1000.0 μM, Replica 2) of 0.07587 mM/min, a vo (c (mupirocin) = 0.5 mM, c (Ile) 1000.0 μM, Replica 3) of 0.07605 mM/min and a vo (c (mupirocin) = 0.5 mM, c (Ile) 1500.0 μM, Replica 1) of 0.08634 mM/min. For the same molecule, the vo (c (mupirocin) = 0.5 mM, c (Ile) 1500.0 μM, Replica 2) was 0.08442 mM/min, the vo (c (mupirocin) = 0.5 mM, c (Ile) 1500.0 μM, Replica 3) was 0.08419 mM/min and the vo (c (mupirocin) = 1.0 mM, c (Ile) 100.0 μM, Replica 1) was 0.01236 mM/min. The vo (c (mupirocin) = 1.0 mM, c (Ile) 100.0 μM, Replica 2) was 0.01246 mM/min, the vo (c (mupirocin) = 1.0 mM, c (Ile) 100.0 μM, Replica 3) was 0.01228 mM/min and the vo (c (mupirocin) = 1.0 mM, c (Ile) 250.0 μM, Replica 1) was 0.0294 mM/min. It also gave a vo (c (mupirocin) = 1.0 mM, c (Ile) 250.0 μM, Replica 2) of 0.02992 mM/min, a vo (c (mupirocin) = 1.0 mM, c (Ile) 250.0 μM, Replica 3) of 0.02794 mM/min and a vo (c (mupirocin) = 1.0 mM, c (Ile) 500.0 μM, Replica 1) of 0.04465 mM/min. For the same molecule, the vo (c (mupirocin) = 1.0 mM, c (Ile) 500.0 μM, Replica 2) was 0.04713 mM/min, the vo (c (mupirocin) = 1.0 mM, c (Ile) 500.0 μM, Replica 3) was 0.04492 mM/min and the vo (c (mupirocin) = 1.0 mM, c (Ile) 1000.0 μM, Replica 1) was 0.06444 mM/min. For the same molecule, the vo (c (mupirocin) = 1.0 mM, c (Ile) 1000.0 μM, Replica 2) was 0.06152 mM/min, the vo (c (mupirocin) = 1.0 mM, c (Ile) 1000.0 μM, Replica 3) was 0.06395 mM/min and the vo (c (mupirocin) = 1.0 mM, c (Ile) 1500.0 μM, Replica 1) was 0.07511 mM/min. It also gave a vo (c (mupirocin) = 1.0 mM, c (Ile) 1500.0 μM, Replica 2) of 0.07278 mM/min, a vo (c (mupirocin) = 1.0 mM, c (Ile) 1500.0 μM, Replica 3) of 0.07621 mM/min and a vo (c (mupirocin) = 2.5 mM, c (Ile) 100.0 μM, Replica 1) of 0.00609 mM/min. It also gave a vo (c (mupirocin) = 2.5 mM, c (Ile) 100.0 μM, Replica 2) of 0.00589 mM/min, a vo (c (mupirocin) = 2.5 mM, c (Ile) 100.0 μM, Replica 3) of 0.00628 mM/min and a vo (c (mupirocin) = 2.5 mM, c (Ile) 250.0 μM, Replica 1) of 0.01433 mM/min. It also gave a vo (c (mupirocin) = 2.5 mM, c (Ile) 250.0 μM, Replica 2) of 0.01642 mM/min, a vo (c (mupirocin) = 2.5 mM, c (Ile) 250.0 μM, Replica 3) of 0.01353 mM/min and a vo (c (mupirocin) = 2.5 mM, c (Ile) 500.0 μM, Replica 1) of 0.02701 mM/min. The vo (c (mupirocin) = 2.5 mM, c (Ile) 500.0 μM, Replica 2) was 0.02762 mM/min, the vo (c (mupirocin) = 2.5 mM, c (Ile) 500.0 μM, Replica 3) was 0.02637 mM/min and the vo (c (mupirocin) = 2.5 mM, c (Ile) 1000.0 μM, Replica 1) was 0.042 mM/min. It also gave a vo (c (mupirocin) = 2.5 mM, c (Ile) 1000.0 μM, Replica 2) of 0.04503 mM/min, a vo (c (mupirocin) = 2.5 mM, c (Ile) 1000.0 μM, Replica 3) of 0.03982 mM/min and a vo (c (mupirocin) = 2.5 mM, c (Ile) 1500.0 μM, Replica 1) of 0.05219 mM/min. For the same molecule, the vo (c (mupirocin) = 2.5 mM, c (Ile) 1500.0 μM, Replica 2) was 0.055 mM/min, the vo (c (mupirocin) = 2.5 mM, c (Ile) 1500.0 μM, Replica 3) was 0.05194 mM/min and the vo (c (mupirocin) = 5.0 mM, c (Ile) 100.0 μM, Replica 1) was 0.00403 mM/min. The vo (c (mupirocin) = 5.0 mM, c (Ile) 100.0 μM, Replica 2) was 0.00438 mM/min, the vo (c (mupirocin) = 5.0 mM, c (Ile) 100.0 μM, Replica 3) was 0.00348 mM/min and the vo (c (mupirocin) = 5.0 mM, c (Ile) 250.0 μM, Replica 1) was 0.0082 mM/min. For the same molecule, the vo (c (mupirocin) = 5.0 mM, c (Ile) 250.0 μM, Replica 2) was 0.00786 mM/min.
